Assay results from US20260374754A1, “N-((ISOQUINOLIN-6-YL)METHYL)-1H-PYRAZOLE-4-CARBOXAMIDE DERIVATIVES AS PLASMA KALLIKREIN INHIBITORS FOR THE TREATMENT OF HEREDITARY ANGIODEMA” (Takeda Pharmaceutical Company Limited, priority 2022, published 2026).
Structures can show the parent of a compound that is named as a salt.

Biological target: human activated kallikrein enzyme (Homo sapiens, UniProt P03952)
Test: Inhibition of human activated plasma kallikrein, fluorogenic PFR-AMC substrate, 500 pM enzyme format
Type: biochemical
Conditions: 500 pM activated kallikrein; 300 μM PFR-AMC; 30 min preincubation; 10 min room temperature; pH 7.5; read-out: Primary Dose Response Assay: Average EC50
In short: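 500 pM activated kallikrein preincubated 30 min at room temperature with inhibitors in pH 7.5 Tris/EDTA/NaCl buffer with PEG-400 and Triton X-100. Reaction started with 300 μM PFR-AMC, run 10 min at room temperature; AMC fluorescence read at ex 380/em 460 nm.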

Chain of human activated kallikrein enzyme (P03952 391-638 limits assumed): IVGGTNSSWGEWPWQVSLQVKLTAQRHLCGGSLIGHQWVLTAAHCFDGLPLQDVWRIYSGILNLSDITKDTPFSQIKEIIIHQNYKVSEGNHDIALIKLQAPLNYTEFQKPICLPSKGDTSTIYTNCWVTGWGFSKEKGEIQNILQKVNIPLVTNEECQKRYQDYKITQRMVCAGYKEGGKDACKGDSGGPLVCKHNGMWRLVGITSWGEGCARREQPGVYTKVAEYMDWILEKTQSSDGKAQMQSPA
Chain of human activated kallikrein enzyme (P03952 20-390 partner limits assumed): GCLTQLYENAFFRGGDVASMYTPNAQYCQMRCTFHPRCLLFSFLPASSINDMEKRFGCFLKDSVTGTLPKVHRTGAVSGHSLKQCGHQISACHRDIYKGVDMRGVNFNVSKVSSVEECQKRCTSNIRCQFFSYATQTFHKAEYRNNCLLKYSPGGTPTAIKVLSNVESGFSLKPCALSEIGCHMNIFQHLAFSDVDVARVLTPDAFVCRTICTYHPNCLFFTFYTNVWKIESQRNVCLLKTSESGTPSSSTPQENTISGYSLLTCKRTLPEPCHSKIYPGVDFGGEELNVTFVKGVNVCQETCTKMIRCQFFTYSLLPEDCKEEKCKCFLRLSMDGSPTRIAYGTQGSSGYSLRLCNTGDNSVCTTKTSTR

Structure (SMILES)	EC50 [µM]
Cc1cc2c(N)nccc2c(C)c1CNc1nncc(NCc2ccc(Cn3cccn3)cc2)n1 [Example 376, N^5-(4-((1H-pyrazol-1-yl)methyl)benzyl)-N^3-((1-amino-5,7-dimethylisoquinolin-6-yl)methyl)-1,2,4-triazine-3,5-diamine]	< 0.001
Cc1cc2c(N)nccc2c(C)c1CNC(=O)c1cnn(Cc2ccc3cccc(Br)c3n2)c1 [Example 159, N-((1-amino-5,7-dimethylisoquinolin-6-yl)methyl)-1-((8-bromoquinolin-2-yl)methyl)-1H-pyrazole-4-carboxamide]	0.01 to 0.1
Cc1cc2c(N)nccc2c(C)c1CNC(=O)c1cnn(Cc2cncnc2)c1 [Example 77, N-((1-amino-5,7-dimethylisoquinolin-6-yl)methyl)-1-(pyrimidin-5-ylmethyl)-1H-pyrazole-4-carboxamide]	0.1 to 1
CCc1cccc2nc(Cn3cc(C(=O)NCc4c(C)cc5c(N)nccc5c4C)cn3)cn12 [Example 140, N-((1-amino-5,7-dimethylisoquinolin-6-yl)methyl)-1-((5-ethylimidazo[1,2-a]pyridin-2-yl)methyl)-1H-pyrazole-4-carboxamide]	< 0.001
Cc1cc2c(N)nccc2c(C)c1CNC(=O)c1cnn(Cc2ccccn2)c1 [Example 78, N-((1-amino-5,7-dimethylisoquinolin-6-yl)methyl)-1-(pyridin-2-ylmethyl)-1H-pyrazole-4-carboxamide]	0.1 to 1
Cc1cc2c(N)nccc2c(C)c1CNC(=O)c1cnn(Cc2cc3cc(C(F)(F)F)ccc3s2)c1 [Example 66, N-((1-amino-5,7-dimethylisoquinolin-6-yl)methyl)-1-((5-(trifluoromethyl)benzo[b]thiophen-2-yl)methyl)-1H-pyrazole-4-carboxamide]	0.001 to 0.01
Cc1cc2c(N)nccc2c(C)c1CNC(=O)c1cnn(Cc2ccc(Oc3cc(Cl)cn(C)c3=O)cc2)c1 [Example 17, N-((1-amino-5,7-dimethylisoquinolin-6-yl)methyl)-1-(4-((5-chloro-1-methyl-2-oxo-1,2-dihydropyridin-3-yl)oxy)benzyl)-1H-pyrazole-4-carboxamide]	< 0.001
Cc1cc2c(N)nccc2c(C)c1CNC(=O)c1cnn(Cc2sc3ccccc3c2Cl)c1 [Example 80, N-((1-amino-5,7-dimethylisoquinolin-6-yl)methyl)-1-((3-chlorobenzo[b]thiophen-2-yl)methyl)-1H-pyrazole-4-carboxamide]	0.1 to 1
Cc1cc2c(N)nccc2c(C)c1CNC(=O)c1cnn(C(CN)c2ccccc2)c1 (stereo not shown) [Example 180, 1-(2-amino-1-phenylethyl)-N-((1-amino-5,7-dimethylisoquinolin-6-yl)methyl)-1H-pyrazole-4-carboxamide]	0.1 to 1
CC(=O)Nc1nccc2cc(C)c(CNc3cc(NCc4ccc(Cn5ccccc5=O)cc4)ncn3)c(C)c12 [Example 247, N-(6,8-dimethyl-7-(((6-((4-((2-oxopyridin-1(2H)-yl)methyl)benzyl)amino)pyrimidin-4-yl)amino)methyl)isoquinolin-1-yl)acetamide]	0.001 to 0.01
Cc1cc2c(N)nccc2c(C)c1CNc1nsc(NCc2cn3cc(C4CC4)ccc3n2)n1 [Example 511, N^3-((1-amino-5,7-dimethylisoquinolin-6-yl)methyl)-N^5-((6-cyclopropylimidazo[1,2-a]pyridin-2-yl)methyl)-1,2,4-thiadiazole-3,5-diamine]	0.001 to 0.01
COc1ccc2cc(Cn3cc(C(=O)NCc4c(C)cc5c(N)nccc5c4C)cn3)c(Cl)nc2c1 [Example 108, N-((1-amino-5,7-dimethylisoquinolin-6-yl)methyl)-1-((2-chloro-7-methoxyquinolin-3-yl)methyl)-1H-pyrazole-4-carboxamide]	< 0.001
COc1ccc2nc(Cn3cc(C(=O)NCc4c(C)cc5c(N)nccc5c4C)cn3)ncc2c1 [Example 126, N-((1-amino-5,7-dimethylisoquinolin-6-yl)methyl)-1-((6-methoxyquinazolin-2-yl)methyl)-1H-pyrazole-4-carboxamide]	0.01 to 0.1
CCOC(=O)c1nc(NCc2c(C)cc3c(N)nccc3c2C)cc(OCc2cn3cc(C4CC4)cnc3n2)n1 [Example 489, ethyl 4-(((1-amino-5,7-dimethylisoquinolin-6-yl)methyl)amino)-6-((6-cyclopropylimidazo[1,2-a]pyrimidin-2-yl)methoxy)pyrimidine-2-carboxylate]	< 0.001
Cc1cc2c(N)nccc2c(C)c1CNc1cc(OCc2ccc(Cn3ccc(C4CC4)n3)cc2)cnn1 [Example 431, 6-(((5-((4-((3-cyclopropyl-1H-pyrazol-1-yl)methyl)benzyl)oxy)pyridazin-3-yl)amino)methyl)-5,7-dimethylisoquinolin-1-amine]	< 0.001
CC(=O)Nc1nccc2c(C)c(CNC(=O)c3cnn(Cc4cn5cc(C)ccc5n4)c3)c(C)cc12 [Example 8, N-((1-acetamido-5,7-dimethylisoquinolin-6-yl)methyl)-1-((6-methylimidazo[1,2-a]pyridin-2-yl)methyl)-1H-pyrazole-4-carboxamide]	0.01 to 0.1

Structure (SMILES)	EC50 [µM]
Cc1cc2c(N)nccc2c(C)c1CNc1cc(OCc2cn3cc(C4CC4)cnc3n2)nc(C(=O)O)n1 [Example 488, 4-(((1-amino-5,7-dimethylisoquinolin-6-yl)methyl)amino)-6-((6-cyclopropylimidazo[1,2-a]pyrimidin-2-yl)methoxy)pyrimidine-2-carboxylic acid]	< 0.001
Cc1c(CNC(=O)c2cnn(Cc3ccccc3)c2)c(C2CC2)cc2c(N)nccc12 [Example 174, N-((1-amino-7-cyclopropyl-5-methylisoquinolin-6-yl)methyl)-1-benzyl-1H-pyrazole-4-carboxamide]	0.01 to 0.1
CCOC(=O)[C@@H]1[C@@H]2CN(C(=O)Cc3ccc(Cn4cc(C(=O)NCc5c(C)cc6c(N)nccc6c5C)cn4)cc3)C[C@@H]21 [Example 211, ethyl (1R,5S,6s)-3-(2-(4-((4-(((1-amino-5,7-dimethylisoquinolin-6-y1)methyl)carbamoyl)-1H-pyrazol-1-yl)methyl)phenyl)acetyl)-3-azabicyclo[3.1.0]hexane-6-carboxylate]	< 0.001
Cc1ccc2nc(C(C(=O)O)n3cc(C(=O)NCc4c(C)cc5c(N)nccc5c4C)cn3)cn2c1 (stereo not shown) [Example 129, 2-(4-(((1-amino-5,7-dimethylisoquinolin-6-yl)methyl)carbamoyl)-1H-pyrazol-1-yl)-2-(6-methylimidazo[1,2-a]pyridin-2-yl)acetic acid]	0.001 to 0.01
Cc1cc2c(N)nccc2c(C)c1CNC(=O)c1cn(Cc2cn3cc(C4CC4)ccc3n2)nc1C(F)F [Example 199, N-((1-amino-5,7-dimethylisoquinolin-6-y1)methyl)-1-((6-cyclopropylimidazo[1,2-a]pyridin-2-y1)methyl)-3-(difluoromethyl)-1H-pyrazole-4-carboxamide]	< 0.001
CCOC(=O)C(C)(C)Cc1cc(C2CC2)cc2cc(COc3cc(NCc4c(C)cc5c(N)nccc5c4C)ncn3)nn12 [Example 396, ethyl 3-(2-(((6-(((1-amino-5,7-dimethylisoquinolin-6-yl)methyl)amino)pyrimidin-4-yl)oxy)methyl)-5-cyclopropylpyrazolo[1,5-a]pyridin-7-yl)-2,2-dimethylpropanoate]	0.001 to 0.01
Cc1cc2c(N)nccc2c(C)c1CNC(=O)c1cnn(Cc2ccc(Cc3cccn(C)c3=O)cc2)c1 [Example 30, N-((1-amino-5,7-dimethylisoquinolin-6-yl)methyl)-1-(4-((1-methyl-2-oxo-1,2-dihydropyridin-3-yl)methyl)benzyl)-1H-pyrazole-4-carboxamide]	< 0.001
Cc1cc2c(N)nccc2c(C)c1CNC(=O)c1cnn(Cc2ccc(CCn3ccccc3=O)cc2)c1 [Example 49, N-((1-amino-5,7-dimethylisoquinolin-6-yl)methyl)-1-(4-(2-(2-oxopyridin-1(2H)-yl)ethyl)benzyl)-1H-pyrazole-4-carboxamide]	0.001 to 0.01
Cc1cc2c(N)nccc2c(C)c1CNC(=O)c1cnn(Cc2ccc3c(-c4ccccn4)cccc3c2)c1 [Example 114, N-((1-amino-5,7-dimethylisoquinolin-6-yl)methyl)-1-((5-(pyridin-2-yl)naphthalen-2-yl)methyl)-1H-pyrazole-4-carboxamide]	< 0.001
Cc1cc(CNc2cc(NCc3c(C)cc4c(N)nccc4c3C)ncn2)cc(C)c1Cc1ccccn1 [Example 368, N^4-((1-amino-5,7-dimethylisoquinolin-6-yl)methyl)-N^6-(3,5-dimethyl-4-(pyridin-2-ylmethyl)benzyl)pyrimidine-4,6-diamine]	< 0.001
CCc1c(Cl)ccc2nc(Cn3cc(C(=O)NCc4c(C)cc5c(N)nccc5c4C)cn3)cn12 [Example 141, N-((1-amino-5,7-dimethylisoquinolin-6-yl)methyl)-1-((6-chloro-5-ethylimidazo[1,2-a]pyridin-2-yl)methyl)-1H-pyrazole-4-carboxamide]	< 0.001
Cc1cc2c(N)nccc2c(C)c1CNc1cc(OCc2ccc(Cc3ccn(C)n3)cc2)ncn1 [Example 297, 5,7-dimethyl-6-(((6-((4-((1-methyl-1H-pyrazol-3-yl)methyl)benzyl)oxy)pyrimidin-4-yl)amino)methyl)isoquinolin-1-amine, formic acid salt]	0.001 to 0.01
Cc1cc2c(N)nccc2c(C)c1CNc1cc(OCc2cccc(-n3ccccc3=O)c2)cnn1 [Example 435, 1-(3-(((6-(((1-amino-5,7-dimethylisoquinolin-6-yl)methyl)amino)pyridazin-4-yl)oxy)methyl)phenyl)pyridin-2(1H)-one]	0.001 to 0.01
COCc1c(C(=O)NCc2c(C)cc3c(N)nccc3c2C)cnn1Cc1cnc(N2CCCC2)nc1 [Example 161, N-((1-amino-5,7-dimethylisoquinolin-6-yl)methyl)-5-(methoxymethyl)-1-((2-(pyrrolidin-1-yl)pyrimidin-5-yl)methyl)-1H-pyrazole-4-carboxamide]	0.01 to 0.1
Cc1cc2c(N)nccc2c(C)c1CNc1cc(OCc2ccccc2)cnn1 [Example 443, 6-(((5-(benzyloxy)pyridazin-3-yl)amino)methyl)-5,7-dimethylisoquinolin-1-amine]	0.1 to 1
